# Test results reported in US7892557B2, “Peptide mimotopes of mycobacterial mannosylated lipoglycans and uses thereof” (priority 2004, dated 2011).
# Ends that are not written are not given here.
# How the values were obtained:
# [1] = system: IgG antibodies in sera of Mtb-infected mice; assay type: binding, BALB/c mice
# RAW 264.7 cell line [2] = test: Confocal microscopy of FITC-labeled B11 peptide binding to RAW 264.7 cell line; assay type: cell-based, murine; conditions: FIG. 5A
# Protocol: (§1) The cell line RAW 264.7 obtained from the American Type Culture Collection was grown in Dulbecco's modified Eagle's medium (DMEM) supplemented with 10% FCS, 1% penicillin, 1% L-glutamine, 1% nonessential amino acids, and 1% pyruvate (Biological Industries, Beit Haemek, Israel) to an 80% confluent culture at 37° C. in an atmosphere enriched with 5% CO2.
# B11 peptide (50 μg) was conjugated to FITC (Biotium, Hayward, Calif.) as described by Sethi et al., [Sethi, K. K., et al. Cell Motil Cytoskeleton 52:231-241 (2002)]. For confocal microscopy, RAW 264.7 cells were grown in 8-well glass slides, Chamber Slide™ (Nunc), as described above. Cells were washed three times in cold PBS and incubated with the FITC-labeled mimotope for 5 min at 4° C. in serial dilutions of 1:2-1:100 in cold PBS. Slides were imaged immediately with a Zeiss 410 confocal laser scanning microscope.
# RAW 264.7 cell line [3] = test: FACS analysis of FITC-labeled mimotope binding to RAW 264.7 cell line; assay type: cell-based, murine
# Protocol: as §1
# RAW 264.7 cells were grown in a 250-ml flask, washed 3 times in cold PBS, and harvested. Cells were then incubated for 15 min at 37° C., with the FITC-labeled peptide diluted 1:50, then washed 3 times in cold PBS. The fluorescence levels of 10,000 cell counts were determined by FACS (Becton Dickinson, Franklin Lakes, N.J.) and analyzed by CELLQuest™ software. Assay of competitive binding between mannose and the FITC-labeled B11 peptide was performed according to Nguyen and Hildreth, [Nguyen, D. G., and Hildreth, J. E. Eur J Immunol 33:483-493 (2003)].
# CS40 anti-ManLAM mAb = test: ELISA competition vs. ManLAM for CS40 mAb; assay type: binding; conditions: 50 μg/ml of peptide; FIG. 1B
# Protocol: Binding efficacy of the amino acid molecule to ManLAM binding antibodies may be evaluated by determining the magnitude of OD decrease when serial dilutions of phage clones/amino acid molecule are incubated with CS40 mAb. The phage clones/amino acid molecule with a higher affinity to mAb will show maximum inhibition of the binding of the mAb to ManLAM with the lowest number of phage particles or lowest amount of amino acid molecule, respectively.
# ELISA competition assay was performed according to Kaur et al., [Kaur, D., et al. Microbiology 148:3049-3057 (2002)]. Briefly, plates were coated with 0.5 μg/well ManLAM. Plates were blocked as described above. The CS40 mAb (diluted 1:2000) was mixed with various concentrations of either phage particles in TBS/1% BSA ([…]) or peptides in PBS/1% BSA (0-200 μg/well). […] After washing (PBS), the ELISA procedure was performed as described above. Samples were all tested in triplicate
# Efficiency of binding was evaluated by the magnitude of OD decrease when serial dilutions of phage clones were incubated with the CS40 mAb.
# CS40 mAb = test: Direct peptide ELISA with CS40 mAb; assay type: binding; conditions: synthetic peptide coated plates
# [4] = system: serum antibodies of TB patients; test: Direct ELISA of human sera on B11 peptide or ManLAM coated plates; conditions: FIG. 4
# Protocol: Direct ELISA assays were performed by coating 96-well ELISA plates (O/N at 4° C.) with 5-20 μg peptide per well in PBS ManLAM 5 μg/well (50 μl/well). The plates were washed twice in phosphate buffered saline (PBS), blocked with PBS/1% BSA and then washed twice (PBS). Sera diluted in PBS/0.5% BSA (1:50 or 1:200) or CS40 mAb (1:2000) (50 μl per well) was added and incubated for 1 h at 37° C. After washing, alkaline phosphatase-labeled goat anti-mouse immunoglobulin (Sigma, St. Louis, Mo.) was added. Following 90-min incubation at 37° C., p-nitrophenyl phosphate (KPL, Gaithersburg, Md.) was added to the plates, and optical density was measured at 405 nm using ELISA reader (ELX-800UV, Bio-Tec instruments, Winooski, Vt.). In all ELISA procedures, samples were tested in triplicate.
# The presence of serum antibodies in sera of TB patients that bind the B11 peptide was tested. […] Using ELISA, sera from Bacillus Calmette Guerin (BCG)-vaccinated individuals (n=10) was tested, as it is sometimes difficult to distinguish BCG-vaccinated individuals from TB patients [Ciesielski, S. D., J Fam Pract 40:76-80 (1995)].
substance,measurement,setting,value
"CISLTEWSMWYRH (random phage display library) [SEQ ID NO: 10, B11 peptide with additional cysteine residue at the amino terminus]",binding properties to ManLAM-binding antibodies compared with original peptide,"[1]; ELISA with extra cysteine at the amino terminus, data not shown",maintained binding properties
"FITC-conjugated B11 peptide: B11 peptide conjugated to FITC (ISLTEWSMWYRH; also: FITC-conjugated, position not given here)",binding to macrophage cell line RAW 264.7 by confocal microscopy,RAW 264.7 cell line [2],bound
same,effect of D-mannose on binding to macrophages (FACS),"RAW 264.7 cell line [3]; 0.125 M D-mannose added, FIG. 5C",inhibited
same,binding to macrophage cell line RAW 264.7 by FACS analysis,"RAW 264.7 cell line [3]; FITC-labeled peptide diluted 1:50, FIG. 5B",bound
ISLTEWSMWYRH (random phage display library) [B11 peptide],decrease in OD in competitive ELISA vs. ManLAM,CS40 anti-ManLAM mAb,100%
same,binding to CS40 mAb by direct ELISA,CS40 mAb,bound
same,"IgG Abs in sera of Mtb-infected mice binding the antigen, vs. naive mice",[1],significantly higher
same,anti-peptide antibody titers in BCG-vaccinated individuals vs. TB patients,"[4]; BCG-vaccinated (n=10), p<0.001",significantly lower
same,antigen-binding antibody titers in sera of TB patients vs. healthy individuals,[4]; TB patients (n=16) vs. healthy individuals (n=36),Significantly higher titers
